Reference: patent US20040266766A1, “Selective urokinase inhibitors” (Wilex AG, priority 2001, published 2004)
Counter-ions that a name gives are not always drawn. Like-named read-outs stand apart in the source and are kept apart here.

Assays:
Caco-2 cell monolayers = assay: Caco-assay: transport across Caco-2 cell monolayers; format: in vitro ADME, human; details: for % amount in the basolateral compartment: 10 μg/ml apical, four hours
Experimental: Transport of the compounds WX-508, WXC-316, WXC-318, WXC-324, WXC-340, WX-532, WX-538, WX-550 and WX-582 across Caco-2 cell monolayers was investigated. In this experiment the bioavailability of the said compounds after oral administration was assessed.
Caco-2-cells (American Type Culture Collection, Rockville, Md., USA) were cultured in Dulbecco's modified Eagle medium (DMEM) (Life Technologies, Gibco BRL, UK) containing 10% vol/vol heat-denatured foetal calf serum (FCS), 1% vol/vol non-essential amino acids, 160 U/ml benzylpenicillin and 100 U/ml streptomycin (Sigma Chemical, St. Louis, Mo., USA). The cells are kept at 37° C. in an atmosphere comprising 95% air and 5% CO2 at 90% relative air humidity. The cells are cultured in […] culture flasks, the medium being replaced every second day and the cells are trypsinized once per week.
For the transport investigations the Caco-2 cells are cultured on porous polycarbonate filter membranes having a pore size of 0.4 μm and a surface of 4.7 cm^2 in clusters of 6 wells (Costar Transwell, Badhoevedorp, Netherlands). The cells are inoculated on each filter at an initial density of 10^4 cells/cm^2. These cells are kept at 37° C. in one of the atmospheres described above. The medium is replaced every second day for a period of three weeks.
On the day of the transport experiment the culture medium was replaced by the same volume of Hank's balanced saline solution (HBSS) buffered with 30 mM HEPES at pH 7.2 (transport medium) and the cells are allowed to equilibrate for 1 hour. Afterwards the apical medium is replaced by 1.5 ml of a solution containing one of the compounds in HBSS/HEPES (10 μg/ml). Cell monolayers are incubated for four hours. Samples of the apical and basolateral compartments are removed at the end of the experiments and used to quantitatively determine the transport of the respective compounds.
The transepithelial electric resistance (TEER) is measured before and after equilibration using a Milicell ERS meter which was connected to a pair of electrodes in order to ensure the integrity of the monolayers formed on the filters. TEER is also measured at the end of the experiments to ensure that the cell monolayer remains coherent.
Samples are taken from the apical and the basolateral side and analysed in a beta counter after adding a scintillation cocktail. All experiments were carried out three times.

PK = PK (Homo sapiens, UniProt P03952); assay: In vitro inhibition of PK (Ki); format: biochemical; details: summary table
Experimental: (§1) In order to determine the inhibitory activity, 200 μl Tris buffer (0.05 mol/l containing the inhibitor, 0.154 mol/l NaCl, pH 8.0), 25 μl substrate (Pefachrome uPA, Pefachrome PL or Pefabloc TH in H2O; Pentapharm Ltd, Basle, Switzerland) and 50 μl urokinase (Calbiochem-Novabiochem GmbH, Bad Soden, Germany) or another appropriate protease e.g. plasmin, thrombin or FXa are incubated for 10 minutes at 30° C. After ca. 30 minutes and 30 cycles the absorption is determined at 405 nm by means of a microplate reader (Mediators PHL, Aureon Biosystems, Vienna, Austria). The Ki values were determined according to Dixon by linear regression using a computer program.

urokinase (uPA) = biological target: T1, urokinase (uPA) (Homo sapiens, UniProt P00749); assay: In vitro inhibition of urokinase (Ki according to Dixon, chromogenic substrate); format: biochemical
T1 construct: purchased Calbiochem-Novabiochem GmbH, Bad Soden, Germany
Experimental: as §1

[1] = Oral bioavailability and plasma kinetics in mice (serum concentration); format: in vivo, Balb/c mice; details: mouse; for concentration at 20 min / concentration at 40 min / concentration at 60 min: female, Balb/c, serum, po; for concentration at 20 min: sample at 20 minutes; for concentration at 40 min: sample at 40 minutes; for concentration at 60 min: sample at 60 minutes
Plasmin = Plasmin (Homo sapiens, UniProt P00747); assay: In vitro inhibition of plasmin (Ki according to Dixon); format: biochemical
Experimental: as §1

FXa = FXa (Homo sapiens, UniProt P00742); assay: In vitro inhibition of FXa (Ki according to Dixon); format: biochemical
Experimental: as §1

Thrombin = Thrombin (Homo sapiens, UniProt P00734); assay: In vitro inhibition of thrombin (Ki according to Dixon); format: biochemical
Experimental: as §1

[2] = list of test substances of Example 17, read-out: Ki human uPA
[3] = summary table, read-out: Ki uPA
[4] = 7.5 mg/kg, 7.5 mg/kg oral, read-out: c in the serum 1st analysis
[5] = 75 mg/kg, 75 mg/kg oral, read-out: c in the serum 1st analysis
[6] = 2.5 mg/kg i.v., time of sample collection 0
[7] = 2.5 mg/kg i.v., time of sample collection 10
[8] = 2.5 mg/kg i.v., time of sample collection 30
[9] = 30 mg/kg, 30 mg/kg oral, read-out: c in the serum 1st analysis
[10] = 300 mg/kg, 300 mg/kg oral, read-out: c in the serum 1st analysis
[11] = 300 mg/kg, 300 mg/kg oral, read-out: c in the serum 2nd analysis
[12] = 10 mg/kg i.v., time of sample collection 0
[13] = 10 mg/kg i.v., time of sample collection 10
[14] = 10 mg/kg i.v., time of sample collection 30

Chain of FXa (P00742 235-488 limits assumed): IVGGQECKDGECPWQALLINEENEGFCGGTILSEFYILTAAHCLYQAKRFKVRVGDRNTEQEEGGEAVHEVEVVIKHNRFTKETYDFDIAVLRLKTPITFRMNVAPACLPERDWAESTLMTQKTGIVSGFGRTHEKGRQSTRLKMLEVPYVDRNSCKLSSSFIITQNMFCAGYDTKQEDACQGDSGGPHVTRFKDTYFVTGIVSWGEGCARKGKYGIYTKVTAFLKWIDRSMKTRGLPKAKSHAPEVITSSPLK
Chain of FXa (P00742 41-179 partner limits assumed): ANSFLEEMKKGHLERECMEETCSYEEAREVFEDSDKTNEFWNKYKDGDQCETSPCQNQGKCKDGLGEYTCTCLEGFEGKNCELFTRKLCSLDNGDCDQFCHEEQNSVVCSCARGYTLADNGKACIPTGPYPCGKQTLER
Chain of PK (P03952 20-638): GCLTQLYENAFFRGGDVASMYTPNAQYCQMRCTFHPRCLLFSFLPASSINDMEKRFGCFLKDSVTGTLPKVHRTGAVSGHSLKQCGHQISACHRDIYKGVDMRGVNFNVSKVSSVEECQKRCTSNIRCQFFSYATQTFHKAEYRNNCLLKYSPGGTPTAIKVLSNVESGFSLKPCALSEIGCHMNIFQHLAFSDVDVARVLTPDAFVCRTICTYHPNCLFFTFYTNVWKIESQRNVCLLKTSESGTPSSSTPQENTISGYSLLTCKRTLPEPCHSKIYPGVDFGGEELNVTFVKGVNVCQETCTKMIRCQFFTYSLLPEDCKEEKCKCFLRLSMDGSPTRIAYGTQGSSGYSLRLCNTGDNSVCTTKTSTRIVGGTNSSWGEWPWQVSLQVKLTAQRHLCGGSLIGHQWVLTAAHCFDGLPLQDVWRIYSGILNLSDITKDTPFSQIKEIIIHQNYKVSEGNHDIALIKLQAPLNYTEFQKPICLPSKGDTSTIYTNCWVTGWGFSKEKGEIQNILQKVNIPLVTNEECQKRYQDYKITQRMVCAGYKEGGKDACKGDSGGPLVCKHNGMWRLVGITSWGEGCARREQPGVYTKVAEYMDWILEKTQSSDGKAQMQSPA
Chain of Plasmin (P00747 581-810 limits assumed, species assumed): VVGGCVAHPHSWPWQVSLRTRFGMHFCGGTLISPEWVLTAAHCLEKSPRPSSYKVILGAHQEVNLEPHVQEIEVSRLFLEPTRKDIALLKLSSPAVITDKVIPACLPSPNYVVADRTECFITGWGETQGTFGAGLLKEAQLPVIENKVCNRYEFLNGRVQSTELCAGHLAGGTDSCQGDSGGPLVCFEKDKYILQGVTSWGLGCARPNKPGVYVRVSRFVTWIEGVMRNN
Chain of Plasmin (P00747 97-580 partner limits assumed, species assumed): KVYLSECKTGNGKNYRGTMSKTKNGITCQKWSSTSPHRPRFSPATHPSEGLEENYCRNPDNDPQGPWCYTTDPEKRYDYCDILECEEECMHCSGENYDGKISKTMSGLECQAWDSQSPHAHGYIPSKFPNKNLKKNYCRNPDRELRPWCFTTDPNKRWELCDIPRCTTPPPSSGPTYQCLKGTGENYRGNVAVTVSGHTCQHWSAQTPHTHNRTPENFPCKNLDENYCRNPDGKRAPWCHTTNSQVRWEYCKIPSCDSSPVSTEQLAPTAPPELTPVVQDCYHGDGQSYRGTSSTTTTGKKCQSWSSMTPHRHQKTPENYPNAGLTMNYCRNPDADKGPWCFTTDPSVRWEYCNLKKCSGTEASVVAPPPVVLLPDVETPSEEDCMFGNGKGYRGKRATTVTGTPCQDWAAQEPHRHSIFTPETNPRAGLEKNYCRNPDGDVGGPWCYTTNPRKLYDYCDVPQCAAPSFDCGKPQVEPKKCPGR

Row | SMILES | % amount in the basolateral compartment (Caco-2 cell monolayers; first value column) [%] | % amount in the basolateral compartment (Caco-2 cell monolayers; second value column) [%] | % amount in the basolateral compartment (Caco-2 cell monolayers; third value column) [%] | Caco-2 assay % basolateral (Caco-2 cell monolayers; first series, first value) | Caco-2 assay % basolateral (Caco-2 cell monolayers; first series, second value) | Caco-2 assay % basolateral (Caco-2 cell monolayers; first series, third value) | Ki (PK) [µM] | Ki (urokinase (uPA); [2]) [µM] | Ki (urokinase (uPA); read-out: Ki uPA) [µM] | Ki (urokinase (uPA); [3]) [µM] | concentration at 20 min [1, 4] [ng/mL] | concentration at 40 min [1, 4] [ng/mL] | concentration at 60 min [1, 4] [ng/mL] | concentration at 20 min [1, 5] [ng/mL] | concentration at 40 min [1, 5] [ng/mL] | concentration at 60 min [1, 5] [ng/mL] | c in the serum 1st analysis [1, 6] [µg/mL] | c in the serum 1st analysis [1, 7] [µg/mL] | c in the serum 1st analysis [1, 8] [µg/mL] | Ki (Plasmin) [µM] | other results
1 | N=C(N)Nc1ccc(S(=O)(=O)NCCNC(=O)C(CO)NS(=O)(=O)Cc2ccccc2)cc1 (stereo not shown) [WX-568, N-[2-(4-guanidino-benzenesulfonylamino)-ethyl]-3-hydroxy-2-phenylmethanesulfonylamino-propionamide hydrochloride] |  |  |  |  |  |  |  |  | 2.1 |  |  |  |  |  |  |  |  |  |  |  | Ki (FXa): > 1000 µM; Ki (Thrombin): > 1000 µM
2 | C[C@H](NC(=O)C(CO)NS(=O)(=O)Cc1ccccc1)C(=O)NCc1ccc(NC(=N)N)cc1 (stereo partly drawn) [WX-532, Benzylsulfonyl-(D)-Ser-Ala-(4-guanidinobenzyl)amide hydrochloride] | 0 | 0 | 0 | 0/0/0% | 0/0/0% | 0/0/0% | 49 | 0.016 | 0.016 | 0.016 |  |  |  |  |  |  |  |  |  | 40 | concentration at 20 min [1, 9]: 1500 ng/mL; concentration at 40 min [1, 9]: 10900 ng/mL; concentration at 60 min [1, 9]: 900 ng/mL; concentration at 20 min [1, 10]: 5800 ng/mL; concentration at 20 min [1, 11]: 6700 ng/mL; concentration at 40 min [1, 10]: 2900 ng/mL; concentration at 40 min [1, 11]: 3300 ng/mL; concentration at 60 min [1, 10]: 12800 ng/mL; concentration at 60 min [1, 11]: 15000 ng/mL; c in the serum 1st analysis [1, 12]: 61.7 µg/mL; c in the serum 2nd analysis [1, 12]: 68.8 µg/mL; c in the serum 1st analysis [1, 13]: 3.8 µg/mL; c in the serum 2nd analysis [1, 13]: 3.5 µg/mL; c in the serum 1st analysis [1, 14]: 11.4 µg/mL; c in the serum 2nd analysis [1, 14]: 11.2 µg/mL; Ki Thrombin (Thrombin): no inh. at 100 μM *); Ki Thrombin (Thrombin; summary table): no inh. at 100 μM *)
3 | N=C(N)Nc1ccc(CNC(=O)NNC(=O)[C@@H](CO)NS(=O)(=O)Cc2ccccc2)cc1 [WX-544, BzSO2-(D)-Ser-AzaGly-(4-guanidinobenzyl)amide] |  |  |  |  |  |  |  |  | 0.83 |  |  |  |  |  |  |  |  |  |  |  | Ki Thrombin (Thrombin): no inh. at 100 μM *)

Further compounds by falling Ki (urokinase (uPA); read-out: Ki uPA), results first:

Row | % amount in the basolateral compartment (Caco-2 cell monolayers; first value column) [%] | % amount in the basolateral compartment (Caco-2 cell monolayers; second value column) [%] | % amount in the basolateral compartment (Caco-2 cell monolayers; third value column) [%] | Caco-2 assay % basolateral (Caco-2 cell monolayers; first series, first value) | Caco-2 assay % basolateral (Caco-2 cell monolayers; first series, second value) | Caco-2 assay % basolateral (Caco-2 cell monolayers; first series, third value) | Ki (PK) [µM] | Ki (urokinase (uPA); [2]) [µM] | Ki (urokinase (uPA); read-out: Ki uPA) [µM] | Ki (urokinase (uPA); [3]) [µM] | concentration at 20 min [1, 4] [ng/mL] | concentration at 40 min [1, 4] [ng/mL] | concentration at 60 min [1, 4] [ng/mL] | concentration at 20 min [1, 5] [ng/mL] | concentration at 40 min [1, 5] [ng/mL] | concentration at 60 min [1, 5] [ng/mL] | c in the serum 1st analysis [1, 6] [µg/mL] | c in the serum 1st analysis [1, 7] [µg/mL] | c in the serum 1st analysis [1, 8] [µg/mL] | Ki (Plasmin) [µM] | SMILES | other results
4 | 0.1 | 0.1 | 2.0 | 0.1% | 0.1% | 2.9% |  |  | 3.1 |  |  |  |  |  |  |  |  |  |  |  | N=C(N)Nc1ccc(CNC(=O)CNC(=O)C(CO)NC(=O)Nc2cccc(C(=O)O)c2)cc1 (stereo not drawn) [WX-C324, 3-Carboxyphenyl-aminocarbonyl-(D)-Ser-Gly-(4-guanidinobenzyl)amide hydrochloride] | Caco-2 assay % basolateral (Caco-2 cell monolayers; second series, first value): 0%; Caco-2 assay % basolateral (Caco-2 cell monolayers; second series, second value): 0%; Caco-2 assay % basolateral (Caco-2 cell monolayers; second series, third value): 3.0%
5 | 0 | 3.1 | 0.6 | 0% | 3.1% | 0.6% | 268 | 0.1 | 0.1 | 0.1 | 0 | 0 | 0 | 0 | 300 | 0 | 7.2 | 0.7 | 0.02 | 2.5 | N=C(N)Nc1ccc(CNC(=O)[C@H](CCc2ccccc2)NC(=O)C(CO)NS(=O)(=O)Cc2ccccc2)cc1 (stereo partly shown) [WX-550, Benzylsulfonyl-(D)-Ser-HomoPhe-(4-guanidinobenzyl)amide hydrochloride] | Ki (FXa): > 100 µM; Ki (FXa; summary table): > 100 µM; Ki (Thrombin): > 50 µM; Ki (Thrombin; summary table): > 50 µM
6 | 0.4 | 3.1 | 5.2 | 0% | 3.1% | 5.2% | 58 | 0.01 | 0.01 |  | 0 | 0 | 0 | 1000 | 700 | 400 | 11.5 | 0.8 | 0.1 |  | C[C@@H](C(=O)NCc1ccc(NC(=N)N)cc1)N(C)C(=O)[C@@H](CO)NS(=O)(=O)Cc1ccc(Cl)cc1 [WX-582, 4-chlorobenzylsulfonyl-(D)-Ser-N-Me-Ala-(4-guanidinobenzyl)amide] | Caco-2 assay % basolateral (Caco-2 cell monolayers; second series, first value): 0.4%; Caco-2 assay % basolateral (Caco-2 cell monolayers; second series, second value): 2.9%; Caco-2 assay % basolateral (Caco-2 cell monolayers; second series, third value): 3.0%
